The nature of data set [1]: Lipophilicity, log D of the compound at pH 7.4 by chromatographic method. It is filed as physicochemical. To be noted: buffer.
A short description of data set [2]: Solubility of the compound in pH 7.4 solution. Type of data set: physicochemical.
Data set [3] in a line: Solubility of the compound in FaSSIF. It is filed as physicochemical.
The nature of another data set: physchem. To be noted: aqueous.
Data set [4] in a line: Oral bioavailability in human. It is filed as ADME, organism-based. To be noted: in vivo.
Data set [5] in a line: Oral bioavailability in rat. It is filed as ADME, organism-based. The settings on record: in vivo.
Data set [6] is described as follows: Ratio of drug level in rat liver to plasma. Type of data set: ADME.

Converted amounts (≈) assume the structure as drawn.

Consider `COc1cc2c(cc1Cc1cccc(Cl)c1F)c(=O)c(C(=O)O)cn2[C@H](CO)C(C)C`, for which, in data set [1], the chromatographic logD – broadly, lipophilicity estimated from chromatographic retention – came out at 6.4.
Take `C[C@@H]1CCO[C@H]2Cn3cc(C(=O)NCc4ccc(F)cc4F)c(=O)c(O)c3C(=O)N12` [DOLUTEGRAVIR]: the chromatographic logD in data set [1] is 3.7.
With `CC1(C)CCC(CN2CCN(c3ccc(C(=O)NS(=O)(=O)c4ccc(NCC5CCOCC5)c([N+](=O)[O-])c4)c(Oc4cnc5[nH]ccc5c4)c3)CC2)=C(c2ccc(Cl)cc2)C1` [VENETOCLAX], the solubility (usually the dissolved amount per volume that the medium holds) in data set [2] came out at 0.4 µg/mL (≈ 0.461 µM); in data set [3], 11 µg/mL (≈ 12.7 µM).
With `CCC[C@H](NC(=O)[C@@H]1[C@H]2CCC[C@H]2CN1C(=O)[C@@H](NC(=O)[C@@H](NC(=O)c1cnccn1)C1CCCCC1)C(C)(C)C)C(=O)C(=O)NC1CC1`, the solubility in “physchem” amounted to 4.7 µg/mL (≈ 6.91 µM).
The molecule `Cc1nnc(C(=O)NC(C)(C)c2nc(C(=O)NCc3ccc(F)cc3)c(O)c(=O)n2C)o1` gave a chromatographic logD in data set [1] of 3.3.
For the molecule `Cc1nnc(C(C)C)n1C1C[C@@H]2CC[C@@H](C1)N2CC[C@H](NC(=O)C1CCC(F)(F)CC1)c1ccccc1` (some centres undefined), the bioavailability (in general, the share of a dose that reaches the circulation, judged against a reference dose that is usually intravenous) in data set [4] was 23%.
With `COC(=O)N[C@H](C(=O)N1CCC[C@H]1c1nc(-c2ccc(-c3ccc(-c4c[nH]c([C@@H]5CCCN5C(=O)[C@@H](NC(=O)OC)C(C)C)n4)cc3)cc2)c[nH]1)C(C)C`, the bioavailability in data set [5] was determined as 50%. The concentration ratio (Kp) (as a rule, the ratio of the level in a tissue or fluid to that in plasma or blood) in data set [6] came out at 5.

The record behind these values is ChEMBL document CHEMBL4190376, “Mapping the Efficiency and Physicochemical Trajectories of Successful Optimizations” (J Med Chem, 2018).
